# Patent publication US20190119193A1, “COMPOSITION FOR REGULATING PLANT GROWTH, METHOD FOR TREATING PLANTS THEREWITH, AND ACTIVE INGREDIENT THEREOF” (Ivan Aleksandrovich Starikov, priority 2016, published 2019)
# Assays:
# Assay type in all cases: in vivo
# Conditions in all cases: for Germinative energy: day 3; for Germinative capacity / Number of lateral roots / Sprout height / Taproot length: day 7
# [1] = system: soybean seeds (“Vilana” variety); experiment: Laboratory tests of DMOA and DEOA for soybean seeds
# Experimental: (§1) After that DMOA and DEOA were dissolved in dimethyl sulfoxide to give solutions of 10 g/L concentration, then water was added to give aqueous solutions of DMOA with concentrations of 5.5·10^−5 M, 5.5·10^−6 M, 5.5·10^−7 M, 5.5·10^−8 M, 5.5·10^−9 M and DEOA with concentrations of 4.8·10^−5 M, 4.8·10^−6 M, 4.8·10^−7 M, 4.8·10^−8 M, 4.8·10^−9 M.
# (§2) The obtained aqueous solutions of DMOA and DEOA were tested in the Scientific Center of Soil-Ecological Reasearch of the Federal State-Funded Educational Institution of Higher Education “Russian State Agrarian University—Moscow Agricultural Academy named after K. A. Timiryazev” (Moscow, 2015) according to the method described by T. A. Sergeeva (Method of laboratory testing of herbicides, Plant protection, 1963, No. 2, pp. 42-43). The primary laboratory screening of DMOA and DEOA was carried out on the seeds of five different crops: sunflower of “Voronezh 638” variety, soybean of “Vilana” variety, alfalfa of “Vega” variety, cucumber of “Nezhinsky” variety and tomato of “Volgogradets” variety.
# (§3) Water was used as a reference.
# (§4) A single experiment was carried out in a Petri dish. A circle of filter paper was laid at the bottom of the dish and treated with 5 ml of the work solution selected for the experiment. After that 25 seeds were uniformly laid on the surface of the treated filter paper. The Petri dish was kept at a temperature of 21-23° C. with illumination by fluorescent lamps for 7 days. The fourfold replication of the experiment within a single variant was applied.
# (§5) The experiment identified the number and percentage of normally germinated seeds on day 3 (germinative energy) and on day 7 (germinative capacity) after the beginning of the experiment. On day 7 the main biometric parameters were also measured: sprout height (mm), taproot length (mm) and number of lateral roots (pcs).
# (§6) The results were processed with the method of variance analysis with the help of STRAZ software in order to get the LSD0.05 (least significant difference between the test results on 5% significance level).
# [2] = system: alfalfa seeds (“Vega” variety); experiment: Laboratory tests of DMOA and DEOA for alfalfa seeds
# Experimental: as §1, §2, §3, §4, §5, §6
# [3] = system: tomato seeds (“Volgogradets” variety); experiment: Laboratory tests of DMOA and DEOA for tomato seeds
# Experimental: as §1, §2, §3, §4, §5, §6
# [4] = system: sunflower seeds (“Voronezh 638” variety); experiment: Laboratory tests of DMOA and DEOA for sunflower seeds
# Experimental: as §1, §2, §3, §4, §5, §6
smiles,measurement,setting,value
"CCOC(=O)C=C([O-])C(=O)OCC.[Na+] [DEOA, sodium salt of diethyl ester of oxaloacetic acid]",Germinative energy,[1]; 4.8 · 10^−5 M,87 ↑ %
same,Germinative capacity,[1]; 4.8 · 10^−5 M,93%
same,Number of lateral roots,[1]; 4.8 · 10^−5 M,0.3 pcs.
same,Sprout height,[1]; 4.8 · 10^−5 M,15.3 mm
same,Taproot length,[1]; 4.8 · 10^−5 M,45.3 ↑ mm
same,Germinative energy,[1]; 4.8 · 10^−6 M,75%
same,Germinative capacity,[1]; 4.8 · 10^−6 M,87%
same,Number of lateral roots,[1]; 4.8 · 10^−6 M,0.6 pcs.
same,Sprout height,[1]; 4.8 · 10^−6 M,19.0 ↑ mm
same,Taproot length,[1]; 4.8 · 10^−6 M,37.7 mm
same,Germinative energy,[1]; 4.8 · 10^−7 M,72%
same,Germinative capacity,[1]; 4.8 · 10^−7 M,90%
same,Number of lateral roots,[1]; 4.8 · 10^−7 M,0.3 pcs.
same,Sprout height,[1]; 4.8 · 10^−7 M,14.7 mm
same,Taproot length,[1]; 4.8 · 10^−7 M,36.2 mm
same,Germinative energy,[1]; 4.8 · 10^−8 M,73%
same,Germinative capacity,[1]; 4.8 · 10^−8 M,93%
same,Number of lateral roots,[1]; 4.8 · 10^−8 M,0.4 pcs.
same,Sprout height,[1]; 4.8 · 10^−8 M,14.3 mm
same,Taproot length,[1]; 4.8 · 10^−8 M,33.6 mm
same,Germinative energy,[1]; 4.8 · 10^−9 M,80%
same,Germinative capacity,[1]; 4.8 · 10^−9 M,99 ↑ %
same,Number of lateral roots,[1]; 4.8 · 10^−9 M,1.2 ↑↑ pcs.
same,Sprout height,[1]; 4.8 · 10^−9 M,17.1 mm
same,Taproot length,[1]; 4.8 · 10^−9 M,46.5 ↑ mm
same,Germinative energy,[2]; 4.8 · 10^−5 M,93%
same,Germinative capacity,[2]; 4.8 · 10^−5 M,97%
same,Number of lateral roots,[2]; 4.8 · 10^−5 M,0.1 pcs.
same,Sprout height,[2]; 4.8 · 10^−5 M,34.9 ↑↑ mm
same,Taproot length,[2]; 4.8 · 10^−5 M,41.9 ↑ mm
same,Germinative energy,[2]; 4.8 · 10^−6 M,73%
same,Germinative capacity,[2]; 4.8 · 10^−6 M,80%
same,Number of lateral roots,[2]; 4.8 · 10^−6 M,0.0 pcs.
same,Sprout height,[2]; 4.8 · 10^−6 M,32.5 ↑ mm
same,Taproot length,[2]; 4.8 · 10^−6 M,37.5 ↑ mm
same,Germinative energy,[2]; 4.8 · 10^−7 M,88%
same,Germinative capacity,[2]; 4.8 · 10^−7 M,93%
same,Number of lateral roots,[2]; 4.8 · 10^−7 M,0.5 pcs.
same,Sprout height,[2]; 4.8 · 10^−7 M,33.5 ↑ mm
same,Taproot length,[2]; 4.8 · 10^−7 M,32.2 mm
same,Germinative energy,[2]; 4.8 · 10^−8 M,73%
same,Germinative capacity,[2]; 4.8 · 10^−8 M,97%
same,Number of lateral roots,[2]; 4.8 · 10^−8 M,0.1 pcs.
same,Sprout height,[2]; 4.8 · 10^−8 M,32.4 ↑ mm
same,Taproot length,[2]; 4.8 · 10^−8 M,42.3 ↑ mm
same,Germinative energy,[2]; 4.8 · 10^−9 M,80%
same,Germinative capacity,[2]; 4.8 · 10^−9 M,87%
same,Number of lateral roots,[2]; 4.8 · 10^−9 M,0.7 ↑ pcs.
same,Sprout height,[2]; 4.8 · 10^−9 M,28.5 mm
same,Taproot length,[2]; 4.8 · 10^−9 M,34.6 mm
same,Germinative energy,[3]; 4.8 · 10^−5 M,93%
same,Germinative capacity,[3]; 4.8 · 10^−5 M,95%
same,Number of lateral roots,[3]; 4.8 · 10^−5 M,0.5 ↑ pcs.
same,Sprout height,[3]; 4.8 · 10^−5 M,25.3 mm
same,Taproot length,[3]; 4.8 · 10^−5 M,80.1 mm
same,Germinative energy,[3]; 4.8 · 10^−6 M,75%
same,Germinative capacity,[3]; 4.8 · 10^−6 M,80%
same,Number of lateral roots,[3]; 4.8 · 10^−6 M,0.2 pcs.
same,Sprout height,[3]; 4.8 · 10^−6 M,25.7 mm
same,Taproot length,[3]; 4.8 · 10^−6 M,77.7 mm
same,Germinative energy,[3]; 4.8 · 10^−7 M,88%
same,Germinative capacity,[3]; 4.8 · 10^−7 M,91%
same,Number of lateral roots,[3]; 4.8 · 10^−7 M,0.4 pcs.
same,Sprout height,[3]; 4.8 · 10^−7 M,26.3 mm
same,Taproot length,[3]; 4.8 · 10^−7 M,84.6 ↑ mm
same,Germinative energy,[3]; 4.8 · 10^−8 M,74%
same,Germinative capacity,[3]; 4.8 · 10^−8 M,76%
same,Number of lateral roots,[3]; 4.8 · 10^−8 M,0.2 pcs.
same,Sprout height,[3]; 4.8 · 10^−8 M,22.7 mm
same,Taproot length,[3]; 4.8 · 10^−8 M,77.9 mm
same,Germinative energy,[3]; 4.8 · 10^−9 M,82%
same,Germinative capacity,[3]; 4.8 · 10^−9 M,89%
same,Number of lateral roots,[3]; 4.8 · 10^−9 M,0.4 pcs.
same,Sprout height,[3]; 4.8 · 10^−9 M,21.3 ↓ mm
same,Taproot length,[3]; 4.8 · 10^−9 M,77.9 mm
same,Germinative energy,[4]; 4.8 · 10^−5 M,87%
same,Germinative capacity,[4]; 4.8 · 10^−5 M,93%
same,Number of lateral roots,[4]; 4.8 · 10^−5 M,9.6 pcs.
same,Sprout height,[4]; 4.8 · 10^−5 M,40.1 ↑↑↑↑↑ mm
same,Taproot length,[4]; 4.8 · 10^−5 M,38.4 mm
same,Germinative energy,[4]; 4.8 · 10^−6 M,80%
same,Germinative capacity,[4]; 4.8 · 10^−6 M,90%
same,Number of lateral roots,[4]; 4.8 · 10^−6 M,8.9 pcs.
same,Sprout height,[4]; 4.8 · 10^−6 M,29.7 ↑↑ mm
same,Taproot length,[4]; 4.8 · 10^−6 M,44.0 mm
same,Germinative energy,[4]; 4.8 · 10^−7 M,93 ↑ %
same,Germinative capacity,[4]; 4.8 · 10^−7 M,93%
same,Number of lateral roots,[4]; 4.8 · 10^−7 M,6.9 pcs.
same,Sprout height,[4]; 4.8 · 10^−7 M,29.2 ↑↑ mm
same,Taproot length,[4]; 4.8 · 10^−7 M,37.0 mm
same,Germinative energy,[4]; 4.8 · 10^−8 M,97 ↑ %
same,Germinative capacity,[4]; 4.8 · 10^−8 M,99 ↑ %
same,Number of lateral roots,[4]; 4.8 · 10^−8 M,11.2 ↑ pcs.
same,Sprout height,[4]; 4.8 · 10^−8 M,27.7 ↑ mm
same,Taproot length,[4]; 4.8 · 10^−8 M,56.3 ↑↑ mm
same,Germinative energy,[4]; 4.8 · 10^−9 M,81%
same,Germinative capacity,[4]; 4.8 · 10^−9 M,87%
same,Number of lateral roots,[4]; 4.8 · 10^−9 M,9.5 pcs.
same,Sprout height,[4]; 4.8 · 10^−9 M,30.5 ↑↑ mm
same,Taproot length,[4]; 4.8 · 10^−9 M,38.3 mm
